Article PMC6199744, “Development of Chemical Proteomics for the Folateome and Analysis of the Kinetoplastid Folateome” (ACS Infectious Diseases, 2018)
Where two headings read alike, the source gives them in different places.

Legend:
Assay type in all cases: binding
[1] = molecular target: T1, HeLa cell extract proteins (Homo sapiens, UniProt P53396)
T1 construct: endogenous in cells; host or cells: HeLa cell extract
T1 sequence (P53396 1-1101): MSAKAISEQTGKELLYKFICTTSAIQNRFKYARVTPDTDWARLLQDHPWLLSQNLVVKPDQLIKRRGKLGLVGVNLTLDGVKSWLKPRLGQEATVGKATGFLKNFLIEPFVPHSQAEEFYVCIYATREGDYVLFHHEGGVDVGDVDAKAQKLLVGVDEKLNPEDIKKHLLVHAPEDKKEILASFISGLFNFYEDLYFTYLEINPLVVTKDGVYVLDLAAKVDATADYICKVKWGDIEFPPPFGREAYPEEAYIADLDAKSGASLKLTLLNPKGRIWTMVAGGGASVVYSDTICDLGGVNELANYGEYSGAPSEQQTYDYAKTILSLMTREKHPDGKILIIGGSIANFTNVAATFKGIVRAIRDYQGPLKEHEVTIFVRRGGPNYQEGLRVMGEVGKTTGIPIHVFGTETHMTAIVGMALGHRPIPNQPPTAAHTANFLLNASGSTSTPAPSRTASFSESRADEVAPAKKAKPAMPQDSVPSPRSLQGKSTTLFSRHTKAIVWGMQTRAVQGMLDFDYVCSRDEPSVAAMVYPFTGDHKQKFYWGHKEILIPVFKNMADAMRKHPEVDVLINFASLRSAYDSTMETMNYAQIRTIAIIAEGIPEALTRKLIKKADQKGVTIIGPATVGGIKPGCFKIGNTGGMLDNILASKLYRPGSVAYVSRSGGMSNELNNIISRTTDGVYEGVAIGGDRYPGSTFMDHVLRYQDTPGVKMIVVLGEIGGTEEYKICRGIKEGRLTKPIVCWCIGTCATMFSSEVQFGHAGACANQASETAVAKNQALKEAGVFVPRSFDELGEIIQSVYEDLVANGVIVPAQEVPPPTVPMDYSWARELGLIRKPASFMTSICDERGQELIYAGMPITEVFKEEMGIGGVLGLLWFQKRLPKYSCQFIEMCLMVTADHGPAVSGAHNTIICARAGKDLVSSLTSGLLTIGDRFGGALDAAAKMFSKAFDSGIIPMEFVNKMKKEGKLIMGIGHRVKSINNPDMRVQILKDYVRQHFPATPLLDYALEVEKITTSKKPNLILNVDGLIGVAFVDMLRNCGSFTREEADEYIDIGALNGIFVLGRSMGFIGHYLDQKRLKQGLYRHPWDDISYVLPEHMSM

[2] = molecular target: T2, HeLa cell extract proteins (Homo sapiens, UniProt P18206)
T2 construct: endogenous in cells; host or cells: HeLa cell extract
T2 sequence (P18206 1-1134): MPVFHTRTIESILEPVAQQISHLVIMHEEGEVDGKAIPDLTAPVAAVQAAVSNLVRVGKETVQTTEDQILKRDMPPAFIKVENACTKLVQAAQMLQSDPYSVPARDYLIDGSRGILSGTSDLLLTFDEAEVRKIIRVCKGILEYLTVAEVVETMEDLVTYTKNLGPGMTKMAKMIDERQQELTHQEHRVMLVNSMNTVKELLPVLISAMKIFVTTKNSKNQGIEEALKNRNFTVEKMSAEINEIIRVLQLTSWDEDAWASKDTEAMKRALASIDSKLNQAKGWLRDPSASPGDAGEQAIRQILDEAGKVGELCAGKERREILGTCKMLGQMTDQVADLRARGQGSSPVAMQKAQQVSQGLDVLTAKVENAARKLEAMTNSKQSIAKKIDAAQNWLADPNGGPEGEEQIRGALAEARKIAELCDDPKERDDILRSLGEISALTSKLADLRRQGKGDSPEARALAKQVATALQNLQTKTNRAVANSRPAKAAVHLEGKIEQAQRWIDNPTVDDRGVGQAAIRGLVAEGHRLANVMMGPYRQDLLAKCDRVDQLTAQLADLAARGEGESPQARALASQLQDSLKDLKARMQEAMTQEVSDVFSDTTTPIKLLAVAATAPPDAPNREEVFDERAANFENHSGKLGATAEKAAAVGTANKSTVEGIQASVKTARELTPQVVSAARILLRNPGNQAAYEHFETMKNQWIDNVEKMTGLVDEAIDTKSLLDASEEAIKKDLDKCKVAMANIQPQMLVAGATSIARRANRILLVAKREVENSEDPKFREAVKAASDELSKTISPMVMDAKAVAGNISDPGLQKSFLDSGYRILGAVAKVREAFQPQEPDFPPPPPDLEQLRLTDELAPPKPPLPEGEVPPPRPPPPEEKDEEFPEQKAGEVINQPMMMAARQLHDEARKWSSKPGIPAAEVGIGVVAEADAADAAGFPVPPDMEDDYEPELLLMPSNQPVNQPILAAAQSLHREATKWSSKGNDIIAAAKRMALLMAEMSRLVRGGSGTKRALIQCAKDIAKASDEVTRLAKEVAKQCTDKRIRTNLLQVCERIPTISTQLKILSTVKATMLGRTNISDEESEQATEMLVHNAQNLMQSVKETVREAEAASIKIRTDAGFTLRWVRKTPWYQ

[3] = molecular target: T3, HeLa cell extract proteins (Homo sapiens, UniProt P04075)
T3 construct: endogenous in cells; host or cells: HeLa cell extract
T3 sequence (P04075 1-364): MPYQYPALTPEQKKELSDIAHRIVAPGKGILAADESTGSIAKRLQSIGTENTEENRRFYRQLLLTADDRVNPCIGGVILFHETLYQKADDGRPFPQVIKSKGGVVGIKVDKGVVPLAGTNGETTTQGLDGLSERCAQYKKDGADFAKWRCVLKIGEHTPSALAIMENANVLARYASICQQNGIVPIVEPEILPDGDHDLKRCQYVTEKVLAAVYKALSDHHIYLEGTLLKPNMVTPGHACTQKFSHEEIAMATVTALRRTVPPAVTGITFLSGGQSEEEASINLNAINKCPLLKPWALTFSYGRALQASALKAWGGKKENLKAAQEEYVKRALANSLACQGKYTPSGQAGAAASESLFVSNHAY

[4] = HeLa, protein ALDOA (45 KDA PROTEIN.)

SMILES | fold changes relative to vehicle control ([1]; HeLa, protein ACLY) | fold changes relative to vehicle control ([2]; protein VCL, HeLa) | fold changes relative to vehicle control ([3]; protein ALDOA, HeLa) | fold changes relative to vehicle control [1] | fold changes relative to vehicle control [2] | fold changes relative to vehicle control [3] | fold changes relative to vehicle control ([1]; protein ACLY, HeLa) | fold changes relative to vehicle control [3, 4] [fold]
Nc1nc2c(c(=O)[nH]1)N(C=O)C(CNc1ccc(C(=O)N[C@@H](CCC(=O)O)C(=O)O)cc1)CN2 (stereo partly drawn) [LEU, leucovorin] | 1.04 | 0.98 | 0.98 | – | – | – | – | –
Nc1nc2[nH]cc(CCc3ccc(C(=O)N[C@@H](CCC(=O)O)C(=O)O)cc3)c2c(=O)[nH]1 [PTX, pemetrexed] | – | – | – | 1.1 | 1.06 | 1.21 | – | –
CCCCCCOc1ccc(Cc2cnc(N)nc2N)cc1 [compound 1] | – | 1.12 | – | – | – | – | 1.25 | 1.38
CCCCCCOc1cccc(Cc2cnc(N)nc2N)c1 [compound 2] | – | 1.8 | – | – | – | – | 1.99 | 2.49
Nc1nc2cccc(-c3ccccc3)c2n1Cc1ccc(Cl)c(Cl)c1 [compound 3] | – | 0.99 | – | – | – | – | 1.2 | 0.85
NCCOCCOCC(=O)Nc1nc2ncc(CNc3ccc(C(=O)NC(CCC(=O)O)C(=O)O)cc3)nc2c(=O)[nH]1 (stereo not drawn) [compound 6] | 1.19 | 1.21 | 1.34 | – | – | – | – | –
NCCCNc1ccc(C(=O)NC(CCC(=O)O)C(=O)O)cc1 (stereo not drawn) [compound 7] | 1.04 | 0.96 | 1.02 | – | – | – | – | –
